US20070054258A1, “Method of removing mucus and cell treatment solution and preservative solution used therefor” (SYSMEX CORPORATION, priority 2003, published 2007)

Assays:
Type in all cases: cell-based
[1] = tested on: cell populations in a clinical specimen derived from uterine cervix; experiment: Effect of removing mucus in clinical specimens of uterine cervix for cytodiagnosis (Giemsa stain, light microscope)
Description: Cell populations in a clinical specimen derived from uterine cervix which had been stored in 30 to 60 mass % methanol-based, buffered preservative solution (PreservCyt® manufactured by Cytyc Corporation) was transferred to a 1.5 ml centrifuge tube (about 1×10^5 cells/sample).
The solution was centrifuged (10000 rpm; 1 minute; 4° C.) to separate cells, and the supernatant was removed.
To the cells thus collected was added 1 ml of a mixture (hereinafter referred to as PBS-T) of 0.1% Tween 20 (Sigma) and 0.01M phosphate buffer (PBS available from Sigma; pH7.4) and the cells were resuspended.
The cells were washed by another centrifugation (10000 rpm, 1 minute, 4° C.) for cell separation, removal of the supernatant and cell collection. The cells washed were resuspended in 500 μl of the preservative solution.
10 mass % aqueous solution of N-acetyl-L-cysteine (hereinafter referred to as AcCys) was prepared for a cell treatment solution. This cell treatment solution was added to the cell suspension obtained from the above, and samples of B to E were prepared so that the AcCys concentrations in the samples were 0.625 mass %, 1.25 mass % or 5 mass %.
The solution obtained after the reaction was finished was then centrifuged (10000 rpm; 1 minute; 4° C.) to separate cells, and the supernatant was removed and cells were collected.
The cells were washed by resuspension in 1 ml of PBS-T, another centrifugation (10000 rpm; 1 minute, 4° C.) for cell separation, and removal of the supernatant. This washing procedure was repeated two times.
The cells collected were suspended in 300 μl of 100% methanol and mounted on a glass slide by using Cytospin. Then, cells on the slide were stained with 5% Giemsa Stain Solution (Sysmex) for 15 minutes, washed thoroughly with PBS, and observed under a light microscope to give micrographs of FIG. 1 to 5 for each sample of A to E. […]

squamous cells = experiment: Staining with fluorescent-labeled anti-NMP 179 antibody after treatment; conditions: cells treated with 5 mass % AcCys (FIG. 8)
Description: Squamous cells which were not treated with AcCys and squamous cells which were treated with 5 mass % AcCys were stained with a fluorescent-labeled anti-NMP 179 antibody which reacts with cells derived from uterine cervix except for normal uterine cervix squamous cells, and observed under a microscope to give each result of fluorescent image in FIG. 7 and FIG. 8.

[2] = tested on: cell populations of clinical specimen; experiment: Effect of the cell treatment solution on cell morphology; conditions: 5 minutes compared with 1 minute
Description: The cell treatment solutions containing L-cysteine at concentrations of 5 mass %, 10 mass % and 20 mass % were used to treat cell populations of clinical specimen for 1 minute or 5 minutes in the same manner of the above, and the cells were observed. The results of each sample treated with the solutions containing 5 mass %, 10 mass % and 20 mass % L-cysteine for 1 minute and 5 minutes were shown in FIG. 9 to FIG. 14.

effect on cell morphology ([2]; 5 mass % L-cysteine) | effect on cell morphology ([2]; 10 mass % L-cysteine) | effect on cell morphology ([2]; 20 mass % L-cysteine) | Compound | mucus part (black clumps) after treatment ([1]; AcCys 5 mass % (Sample E), room temperature, 1 minute) | mucus part (black clumps) after treatment ([1]; AcCys 5 mass % (Sample F), reaction time 24 hours) | mucus part (black clumps) after treatment ([1]; AcCys under 5 mass % (Samples B to D), room temperature, 1 minute) | specificity of fluorescent anti-NMP179 antibody staining (squamous cells)
– | – | – | CC(=O)N[C@@H](CS)C(=O)O [AcCys, N-acetyl-L-cysteine] | black clumps showing mucus part were disappeared | black clumps showing mucus part were disappeared | there remained black clumps which showed mucus part | specific staining
did not affect the cell morphology | did not affect the cell morphology | did not affect the cell morphology | N[C@@H](CS)C(=O)O [L-cysteine] | – | – | – | –
